Reference: the NIST ThermoML archive (doi:10.1021/je201116t)

Assay: xn = mol fraction of the nth substance listed
Conditions: 101 kPa, Liquid; for viscosity: Capillary tube (Ostwald / Ubbelohde) method

CCC(=O)[O-].CC[NH+]1CCNCC1 [N-ethylpiperazinium propionate] + CO
Conditions	mass density, 298.15 K [kg/m3]	mass density, 303.15 K [kg/m3]	mass density, 308.15 K [kg/m3]	mass density, 313.15 K [kg/m3]	viscosity, 298.15 K [mPa·s]	viscosity, 303.15 K [mPa·s]	viscosity, 308.15 K [mPa·s]	viscosity, 313.15 K [mPa·s]
x2 = 0	1008.36	1004.38	1000.33	996.237	243.49	164.81	113.44	80.93
x2 = 0.107	1004.94	1000.96	996.919	992.856	172.19	121.04	86.27	62.74
x2 = 0.21	1000.73	996.739	992.724	988.682	123.07	89.92	65.93	49.08
x2 = 0.297	996.263	992.299	988.292	984.255	84.02	63.49	47.38	36.14
x2 = 0.402	989.36	985.408	981.411	977.382	52.96	40.86	31.63	24.89
x2 = 0.5021	980.548	976.585	972.582	968.548	32.54	25.5	20.36	16.5
x2 = 0.5994	968.97	964.991	960.968	956.912	18.41	15.03	12.4	10.4
x2 = 0.7015	951.447	947.38	943.3	939.188	9.416	7.866	6.73	5.804
x2 = 0.7998	925.328	921.15	916.957	912.733	4.331	3.807	3.366	2.989
x2 = 0.8999	879.78	875.414	871.008	866.573	1.754	1.592	1.451	1.327

CCC(=O)[O-].CC[NH+]1CCNCC1 [N-ethylpiperazinium propionate] + CCCCO
Conditions	mass density, 298.15 K [kg/m3]	mass density, 303.15 K [kg/m3]	mass density, 308.15 K [kg/m3]	mass density, 313.15 K [kg/m3]	viscosity, 298.15 K [mPa·s]	viscosity, 303.15 K [mPa·s]	viscosity, 308.15 K [mPa·s]	viscosity, 313.15 K [mPa·s]
x2 = 0	1008.36	1004.38	1000.33	996.237	243.49	164.81	113.44	80.93
x2 = 0.1025	998.465	994.495	990.478	986.427	177.49	122.06	84.94	61.07
x2 = 0.2018	987.497	983.536	979.527	975.484	133.79	91.02	63.82	46.53
x2 = 0.2999	975.365	971.427	967.437	963.409	98.72	67.32	47.84	35.22
x2 = 0.3989	961.397	957.475	953.503	949.491	73.16	50.02	35.72	26.48
x2 = 0.5016	944.783	940.876	936.907	932.906	53.48	36.42	26.02	19.37
x2 = 0.6004	926.29	922.385	918.422	914.42	38.82	26.35	18.8	14.05
x2 = 0.7012	903.96	900.045	896.078	892.071	27.07	18.12	12.92	9.675
x2 = 0.8008	877.764	873.84	869.866	865.851	17.51	11.84	8.502	6.434
x2 = 0.8995	845.961	842.05	838.083	834.079	9.611	6.701	4.966	3.87

CCC(=O)[O-].CC[NH+]1CCNCC1 [N-ethylpiperazinium propionate] + CCCO
Conditions	mass density, 298.15 K [kg/m3]	mass density, 303.15 K [kg/m3]	mass density, 308.15 K [kg/m3]	mass density, 313.15 K [kg/m3]	viscosity, 298.15 K [mPa·s]	viscosity, 303.15 K [mPa·s]	viscosity, 308.15 K [mPa·s]	viscosity, 313.15 K [mPa·s]
x2 = 0	1008.36	1004.38	1000.33	996.237	243.49	164.81	113.44	80.93
x2 = 0.1036	1000.19	996.232	992.229	988.196	160.34	113.63	81.46	59.74
x2 = 0.2026	991.259	987.3	983.298	979.269	107.67	76.59	56.22	42.19
x2 = 0.3041	980.78	976.824	972.831	968.803	70.22	52.12	39.45	30.42
x2 = 0.4017	968.85	964.943	960.993	956.993	47.45	36.21	28.19	22.22
x2 = 0.4993	955.014	951.074	947.084	943.06	30.81	24.26	19.38	15.67
x2 = 0.5997	937.035	933.087	929.086	925.047	18.93	15.39	12.6	10.42
x2 = 0.6994	915.033	911.053	907.028	902.965	11.31	9.444	7.899	6.684
x2 = 0.8009	886.568	882.553	878.491	874.385	6.389	5.454	4.689	4.059
x2 = 0.8997	850.105	846.036	841.932	837.782	3.609	3.15	2.762	2.435

CCC(=O)[O-].CC[NH+]1CCNCC1 [N-ethylpiperazinium propionate] + CCO
Conditions	mass density, 298.15 K [kg/m3]	mass density, 303.15 K [kg/m3]	mass density, 308.15 K [kg/m3]	mass density, 313.15 K [kg/m3]	viscosity, 298.15 K [mPa·s]	viscosity, 303.15 K [mPa·s]	viscosity, 308.15 K [mPa·s]	viscosity, 313.15 K [mPa·s]
x2 = 0	1008.36	1004.38	1000.33	996.237	243.49	164.81	113.44	80.93
x2 = 0.0971	1002.79	998.809	994.769	990.695	170.13	119.44	85.41	61.23
x2 = 0.2017	995.311	991.322	987.293	983.232	109.9	82.6	60.3	44.79
x2 = 0.3033	986.576	982.598	978.579	974.526	75.85	55.8	42.03	32.1
x2 = 0.3983	976.628	972.658	968.645	964.592	48.89	37.01	28.65	22.63
x2 = 0.5001	963.41	959.429	955.408	951.35	29.59	23.34	18.57	15.06
x2 = 0.6006	946.741	942.745	938.702	934.623	17.18	14	11.54	9.602
x2 = 0.6994	925.277	921.231	917.149	913.029	9.403	7.923	6.734	5.766
x2 = 0.8001	895.282	891.163	887.012	882.818	4.925	4.279	3.74	3.286
x2 = 0.8998	852.465	848.243	843.982	839.679	2.437	2.175	1.947	1.749
